The test system of test [1] is isolated mitochondria. The note with it: cited from earlier work.
The target in test [2] is T1, recombinant mPBR (Mus musculus, UniProt P50637).
T1 construct: inferred from vector pET15b with insertion at NdeI) (N); made in house; host or cells: Escherichia coli BL21(DE3), IPTG-induced; whole bacteria or bacterial membranes
In words: 3H-PK 11195 radioligand binding to IPTG-induced recombinant PBR in E. coli (Scatchard analysis). The note with it: 3H-PK 11195 binding, IPTG-induced E. coli transfected with mouse PBR cDNA.
Protocol: Binding specificity of the IPTG-induced PBR in E. coli was determined in binding studies where specific binding of ^3H-PK 11195 (1.0 nM) was measured in the presence of the indicated concentrations of the indicated ligands.
Radioligand binding assays- ^3H-1- (2-chlorophenyl)-N-methyl-N-(1-methyl-propyl)-3-isoquinolinecarboxamide (PK 11195) binding studies were performed as we previously described (Papadopoulos, V. et al. 1990, J. Biol. Chem. 265: 3772-3779; Garnier, M. et al. 1994, Mol. Pharm. 45:201-211). The dissociation constant (Kd) and the number of binding sites (Bmax) were determined by Scatchard plot analysis of the data using the LIGAND program (Munson, P. J. and Rodbard, D. 1980, Anal. Biochem. 107:220-239).

Test [3] concerns the target T2, PBR (Mus musculus, UniProt P50637).
T2 construct: inferred from vector pET15b with insertion at NdeI) (N); made in house; host or cells: Escherichia coli BL21(DE3), IPTG-induced; whole bacteria or bacterial membranes
The test is described as follows: Ligand-induced release of 3H-cholesterol from membranes of IPTG-induced transformed bacteria. Format: biochemical. The settings on record: Fig. 3F.
Protocol: ^3H-Cholesterol uptake by E. coli cells was examined using the indicated concentrations of control or IPTG-treated transformed bacteria incubated in the presence of 6.7 nM ^3H-cholesterol (50.0 Ci/mmol) for 60 min at 37°C. Specific cholesterol uptake is defined as IPTG-induced minus basal values, E. coli protoplasts were prepared from cells grown in LB at 37°C to the logarithmic phase of growth and centrifuged at 10,000g for 5 min. The cells were washed twice in 10mM Tris-HCl buffer [pH8.0] and the pellet was resuspended in a solution containing 20%(w/w) sucrose and 0.1M Tris-HCl [pH8.0]. The cells were then suspended in 1ml of buffer per 10 OD450 and mixed. Within 1 min lysozyme was added from a 2mg/ml stock solution in distilled water to a final concentration of 100 ug/ml at 37°C, and stirring was continued for the next 12 min. The cell suspension was diluted 1:10 with 0.1M Na2EDTA prewarmed to 37°C. Continuous stirring and slow dilution over 2.5 min prevented cell lysis. More than 99% of the cells became spherical within 10 minutes (Weiss, R. L. 1978, Meth. Cell Biol. 20:141-147).

pKd: −log10 of the molar value.

What is called pKd is −log10 of the Kd, conventionally taken in molar units.

With “TTN: triakontatetrapeptide, naturally occurring processing product of DBI (KTKPSDEEMLFIYGHYKQATVGDINTERPGMLDF; Triakontatetraneuropeptide; UniProt P07108 17-50, looked up, fragment)”, in test [1], the “ability to mimic the effect of DBI on mitochondrial steroidogenesis” value is reported as “able to mimic the effect of DBI”. On to “ODN: octadecaneuropeptide (DBI33-50) (KQATVGDINTERPGMLDF; Octadecaneuropeptide; UniProt P07108 33-50, looked up, fragment)”, for which the “ability to mimic the effect of DBI on mitochondrial steroidogenesis” value in test [1] is reported as “not”.

As for `CCC(C)N(C)C(=O)c1cc2ccccc2c(-c2ccccc2Cl)n1` (centres unmarked) [PK 11195, 1-(2-chlorophenyl)-N-methyl-N-(1-methyl-propyl)-3-isoquinolinecarboxamide], in test [2], the Bmax was 0.23 pmol/mg protein and the pKd was 8.96. Besides, the “release of cholesterol from cholesterol-loaded bacterial membranes” value in test [3] was “cholesterol was liberated from the membranes”.
